Source: patent US9474701B2, “Antimicrobial soaps containing carvacrol and methods of using same” (Hydromer, Inc., priority 2014, dated 2016)

Experiments:
[1] = test system: gram negative/gram positive bacteria; assay: Synergistic effect of soap ingredients with/without Carvacrol; format: cell-based; settings: for Efficacy against gram negative/gram positive bacteria: bacterial growth inhibition, ingredients with/without Carvacrol; for Synergistic effect: synergism with the Carvacrol
Experimental: Main ingredients of NMP free V100, (2-Phenoxyethanol, Caprylyl glycol and Hexylene Glycol) were analyzed with/without Carvacrol.

[2] = test system: gram negative/gram positive bacteria; assay: Synergistic effect of soap ingredients with/without Oregano Oil; format: cell-based; settings: for Efficacy against gram negative/gram positive bacteria: inhibition, ingredients with/without Oregano Oil; for Synergistic effect: synergism with Oregano Oil
Experimental: Main ingredients of NMP free V100, 2-Phenoxyethanol, Caprylyl glycol and Hexylene Glycol were analyzed in the concentrations that they appear in the Hydromer Antiseptic Soap with/without Oregano Oil.

Compound	Efficacy against gram negative/gram positive bacteria [1]	Synergistic effect [1]	Efficacy against gram negative/gram positive bacteria [2]	Synergistic effect [2]
CCCCCCC(O)CO (centres unmarked) [0.02% Caprylyl Glycol, Caprylyl Glycol]	NO Inhibition	act synergistically	NO Inhibition	act synergistically
Cc1ccc(C(C)C)cc1O [0.2% Carvacrol, Carvacrol]	NO Inhibition			
OCCOc1ccccc1 [0.035% 2-Phenoxyethanol, 2-Phenoxyethanol]	NO Inhibition	act synergistically	NO Inhibition	act synergistically
Hexylene Glycol [0.008% Hexylene Glycol]	NO Inhibition		NO Inhibition	
